# Source: paper PMC6694155, “PTPσ inhibitors promote hematopoietic stem cell regeneration” (Nature Communications, 2019)
# Where “and” joins values, the source holds several entries; their conditions need not be identical. Identical values can stand only once.
# Assays:
# BM KSL cells [1] = experiment: CFC assay from 300 cGy-irradiated BM KSL cells, 3 day culture; format: cell-based, mouse; parameters: CFU-GM / BFU-E: unit not given here
# Experimental: CFC assays (colony-forming unit-granulocyte monocyte), burst-forming unit-erythroid, and CFU-GEMM were performed using MethoCult GF M3434 (Stemcell Technologies)[6]. […] Recombinant mouse SCF, Flt3 ligand, and TPO were purchased from R&D Systems. For competitive repopulation assays, BM cells were isolated from donor 10–12-week-old female CD45.2^+ mice. Recipient 10-week-old female CD45.1^+ B6.SJL mice were irradiated with 950 cGy TBI using a Cs137 irradiator and donor BM cells were administered via tail vein injection along with a competing dose of 1 × 10^5 non-irradiated host BM cells. Multilineage donor hematopoietic cell engraftment was measured in the PB by flow cytometry.
# BCL-XL in BM KSL cells = experiment: BCL-XL protein intracellular flow cytometry of BM KSL cells; format: cell-based, mouse; conditions: BM KSL cells, 24 hours following 300 cGy, 43 ng/ml BVD523
# Experimental: (§1) Intracellular flow cytometric analysis was performed on irradiated (300 cGy) or non-irradiated, sorted KSL cells after treatment with 1 μg/mL DJ001 or control (equal volumes of DMSO) for 24 h. At 24 h after irradiation, cells were fixed with 4% PFA for 10 min, followed by permeabilization using 0.25% saponin in PBS. Cells were washed again and stained with antibody at the recommended concentrations for 30 min at RT. Intracellular antibodies and phospho-flow antibodies used were as follows: FITC-conjugated anti-BCL-XL (Abcam, #26148, 1:100), active RAC1-GTP antibody (NewEast Biosciences, #26903, 1:100) and anti-PAK1 (phospho S144) + PAK2 (phospho S141) + PAK3 (phospho S154) antibody (Abcam, #40795, 1:100), and FITC-conjugated goat anti-rabbit IgG H&L (Abcam, #97050, 1:200).
# BM KSL cells [2] = experiment: Annexin V/7AAD apoptosis assay of BM KSL cells from mice 24 h post 500 cGy TBI; format: in vivo, mouse
# Experimental: (§2) Eight- to ten-week-old female C57BL/6 mice were irradiated with 500 cGy TBI followed by subcutaneous injections of 5 mg/kg DJ001 or vehicle, or 5 mg/kg DJ001 plus 40 mg/kg EHT1864. Twenty four hours after irradiation, mice were killed to collect BM cells for Annexin V apoptosis analysis. BM cells were stained with APC-Cy7-conjugated anti-mouse Sca1 (BD Biosciences, #560654, 1:100), PE-conjugated anti-ckit (BD Biosciences, #553355, 1:100), and V450 lineage cocktail (BD Biosciences, #561301, 1:10) antibodies for 30 min at 4 °C. Cells were then resuspended in 1× Annexin V binding buffer and then stained with FITC-conjugated anti-Annexin V antibody (BD Biosciences, #556547,1:50) and 7AAD antibody (BD Biosciences, #559925, 1:40)[68]. For in vitro human BM cell apoptosis assays, isolated human BM CD34^+ cells were plated into 96-well plates and then irradiated with 300 cGy. Immediately after irradiation, cells were treated with 5 μg/mL DJ001 or vehicle for 24 h and then collected for Annexin V cell apoptosis analysis. For cell cycle analysis, BM KSL cells were irradiated at 300 cGy and then treated with 1 μg/mL DJ001 or vehicle for 36 h. Subsequently, cells were resuspended in 200 μL of PBS, fixed with 1 mL of ice-cold fixation solution (0.25% Saponin, 2.5% PFA, 2% fetal calf serum (FCS) in PBS), and incubated for 30 min on ice. Cells were washed in Saponin buffer (0.25% Saponin, 2% FCS in PBS) and resuspended in 200 μL of Saponin buffer containing 20 μL of FITC-conjugated anti-Ki67 antibody (BD Biosciences, #556026, 1:10) and 1 μL of RNase (Qiagen, #19101, 100 mg/mL). After 30 min of incubation, cells were washed in Saponin buffer and resuspended for flow analysis in 200 μL of Saponin buffer containing 5 μL 7AAD (BD Biosciences, #559925, 1:40).
# C57BL/6 mice = experiment: Survival study after 750 cGy TBI; format: in vivo, mouse; conditions: 750 cGy, systemic EHT1864
# Experimental: For survival studies, 10-week-old female C57BL/6 mice were irradiated with 750 cGy TBI, which is lethal for ~50% of C57BL/6 mice by day + 30 (LD50/30), using a Shepherd Cesium-137 irradiator. Twenty four hours post irradiation, mice were administered daily subcutaneous injections of 5 mg/kg DJ001 or DJ009, or vehicle in a volume of 100 μL for 10 days. DJ001 or DJ009 injections were prepared in PBS, 0.5% Tween 80, and 10% DMSO. Corresponding vehicle injections contained PBS, 10% DMSO, and 0.5% Tween 80. PB complete blood counts were measured using a Hemavet 950 instrument (Drew Scientific) at day + 10 post irradiation. For hematopoietic analysis, BM cells were collected at day + 10 post irradiation. To study whether DJ001 increased survival rates through activation of RAC signaling, the RAC inhibitor, EHT1864 (Selleckchem), was dissolved in PBS and administered intraperitoneally, 40 mg/kg every other day, to 750 cGy-irradiated mice until day + 10.
# p-PAK1 in BM KSL cells = experiment: p-PAK1 phospho-flow cytometry of BM KSL cells; format: cell-based, mouse; conditions: BM KSL cells, DJ001 + 6 μg/mL EHT1864
# Experimental: as §1
# BM KSL cells [3] = experiment: Cell cycle analysis (Ki67/7AAD) of BM KSL cells; format: cell-based, mouse; conditions: BM KSL cells following irradiation
# Experimental: as §2
# catalytic domain of PTPσ = system: catalytic domain of PTPσ; parameters: method as in PMID 23185579; conditions: cited from earlier work
smiles,measurement,setting,value
"CC(C)Nc1cc(-c2c[nH]c(C(=O)N[C@H](CO)c3cccc(Cl)c3)c2)c(Cl)cn1 [BVD523, reference compound]",effect on hematopoietic progenitor cell recovery following irradiation,"BM KSL cells [1]; DJ001 + 43 ng/mL BVD523, 300 cGy, day +3",abrogated hematopoietic progenitor cell recovery
same,effect on DJ001-mediated increase in BCL-XL protein levels,BCL-XL in BM KSL cells,blocked DJ001-mediated increase in BCL-XL protein levels
"O=c1cc(CN2CCOCC2)occ1OCCCCCSc1ccnc2cc(C(F)(F)F)ccc12 [EHT1864, reference compound]",Figure 3e: Annexin V/7AAD apoptosis of BM KSL cells,"BM KSL cells [2]; 24 h post 500 cGy TBI, individual mice",24.85 and 19.31 and 21.21 and 22.28
same,effect on DJ001-mediated anti-apoptotic effects on BM KSL cells,BM KSL cells [2]; irradiated mice,abrogated DJ001-mediated anti-apoptotic effects
same,effect on DJ001-mediated increase in survival of irradiated mice,C57BL/6 mice,completely blocked DJ001-mediated increase in survival
same,effect on DJ001-mediated CFC generation,"BM KSL cells [1]; BM KSL cells irradiated with 300 cGy in vitro, 6 µg/ml EHT1864",inhibited DJ001-mediated CFC generation
same,BFU-E,BM KSL cells [1]; Supplementary Figure 7d,1 and 2
same,CFU-GM,BM KSL cells [1]; Supplementary Figure 7d,9 and 6 and 11 and 10 and 12
same,effect on DJ001-mediated phosphorylation of PAK1,p-PAK1 in BM KSL cells,abrogated DJ001-mediated phosphorylation of PAK1
same,effect on DJ001-mediated induction of cell cycle progression,BM KSL cells [3],suppressed DJ001-mediated induction of cell cycle progression
"COc1ccc2c(c1)/C(=C/c1cnc[nH]1)C(=O)N2 [SU9516, reference compound]",effect on DJ001-mediated induction of cell cycle progression,BM KSL cells [3],suppressed DJ001-mediated induction of cell cycle progression
"O=C(/C=C\Nc1cc([N+](=O)[O-])ccc1O)c1ccc(Cl)c(Cl)c1 [compound 5075, reference compound]",reported properties against the catalytic domain of PTPσ,catalytic domain of PTPσ,binding and inhibitory properties
